The values below come from US5679680A, “α-substituted hydrazides having calpain inhibitory activity” (Warner-Lambert Company, priority 1995, dated 1997).

SMILES strings stand for the structures.

Test [1] concerns Purkinje cells in cerebellar slices. Kind of test: AMPA toxicity to Purkinje cells in cerebellar slices. The class given is cell-based, rat. The conditions noted are these: 100 μM compound. How it is done:
(ii) Neuroprotective effects of the compound of Example 5 against AMPA toxicity to Purkinje cells in cerebellar Slices: Cerebellar slices were acutely isolated from adult rats and maintained in an oxygenated bath for the duration of the experiment as described elsewhere (Caner, et al., Brain Research 1993;607: 354-356). Example 5 (100 μM) was added to the ACSF (124 mM NaCl, 3.3 mM KCl, 2 mM CaCl2, 25.7 mM NaHCO3, 2.4 mM MgSO4, 1.25 mM KH2 PO4, 10 mM glucose) 60 minutes before the addition of amino-3-hydroxy-5-methyl-4-isoxazole propionic acid (AMPA; 30 μM for 30 minutes). The slices were then allowed to recover in normal ACSF for an additional 90 minutes. Histological damage to Purkinje cells was identified and quantified as described in detail elsewhere (Caner, et al., Brain Research 1993;607: 354-356).

The target in test [2] is T1, Calmodulin-calcineurin (Bos taurus, UniProt P48452).
T1 construct: purchased Sigma; host or cells: bovine brain
Put plainly: Calmodulin-calcineurin assay (p-nitrophenyl phosphate). The class given is biochemical, bovine. As to conditions: pH 7.4, 25° C., 60 minutes or more. How it is done:
(§1) Selectivity of α-substituted Hydrazides: Calpain I and II were assayed as described in Example 1. One to 2 ng papain (papaya latex, Sigma, P3125), 1.25 μg trypsin (bovine pancreas, Sigma, T8003), 5 μg thermolysin (Bacillus thermoproteolyticus, Sigma, P1512) were assayed using 0.5 mg/mL casein as substrate in the microplate format (250 μL reaction volume), essentially a described by Buroker-Kilgore, M. and Wang K K W, Anal Biochem 1993;208: 387-392. Cathepsin B (0.002 unit, bovine spleen) was assayed with 50 mM MES (pH 5.5), 100 μM carbobenzoxy-Arg-Arg-4-methoxy-beta-naphthlamide (Cbz-Arg-Arg-MNA), inhibitor, and 2 mM DTT in 200 μL for 60 minutes at room temperature. Fifty-microliter aliquots were transferred to a fluorescence-compatible plate and then read with a Perkin-Elmer fluorometer LS-50B (excitation 340 nm and emission 425 nm). Calcineurin (bovine brain, Sigma) (5 μg, 0.8 unit) was assayed with 10 mM p-nitrophenyl phosphate in 1 mM DTT, 1 mM CaCl2, 1 mM MnCl2, […] calmodulin (CaM, if added), and 50 mM Tris-HCl (pH 7.4) at 25° C. for 60 minutes or more. Production of p-nitrophenol was monitored at 405 nm. Inhibition of these proteases are presented as IC50.

Test [3] relates to Spectrin Breakdown in Human Leukemic Molt-4 cells. Put plainly: Cell-based calpain assay: spectrin breakdown in Molt-4 cells treated with calcium ionophore A23187. The conditions noted are these: 1 hour preincubation, 15 μM A23187, 90 minutes, read-out: IC50 for inhibition of spectrin breakdown (145 kD fragment formation). How it is done: Calpain inhibitor was added to the wells if desired and preincubated for 1 hour. […] The cells were then lysed with 2% (w/v) SDS, 5 mM EGTA, 5 mM EDTA, 150 mM NaCl, 0.5 mM PMSF, 10 μg/mL AEBSF, 5 μg/mL leupeptin, 10 μg/mL pepstatin, 10 μg/mL TLCK, 10 μg/mL TPCK, and 20 mM Tris-HCl (pH 7.4) at room temperature for 5 to 10 minutes. One hundred microliters of 100% (w/v) TCA was added and total protein precipitate was collected by microcentrifugation. The final pellets were neutralized with Tris base. Protein samples (50 μg) were run on SDS-PAGE with the Tris-glycine running buffer system and transferred onto a PVDF membrane. The blots were probed with an anti-spectrin (nonerythroid) antibody and a second antibody with alkaline phosphatase conjugate. The blots were developed with nitro blue tetrazolium and 5-bromo-4-chloro-3-indolyl-phosphate.

Test [4] has as its target T2, Cathepsin B (Bos taurus, UniProt P07688).
T2 construct: Cathepsin B (0.002 unit, bovine spleen); from tissue; host or cells: bovine spleen
Kind of test: Cathepsin B assay (Cbz-Arg-Arg-MNA substrate). The test is classed as biochemical, bovine. As to conditions: pH 5.5, 60 minutes, room temperature. How it is done: as §1

The target in test [5] is T3, Papain (Carica papaya, UniProt P00784).
T3 construct: purchased Sigma P3125; host or cells: papaya latex
T3 sequence (P00784 134-345): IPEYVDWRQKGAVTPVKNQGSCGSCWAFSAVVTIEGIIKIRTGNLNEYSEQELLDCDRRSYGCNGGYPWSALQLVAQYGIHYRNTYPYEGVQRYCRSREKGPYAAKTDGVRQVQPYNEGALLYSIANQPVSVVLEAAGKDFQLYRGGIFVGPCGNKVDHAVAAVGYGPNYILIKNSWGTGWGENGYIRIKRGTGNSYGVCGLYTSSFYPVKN
Kind of test: Papain assay, casein substrate. The test is classed as biochemical. The conditions noted are these: 0.5 mg/mL casein. How it is done: as §1

Broadly, the IC50 is the concentration at which inhibition is half-maximal. `O=C(CCl)NN=c1[nH]c2ccccc2n(-c2ccccc2)c1=O` [Example 5, 2-Chloro-acetic acid (3-oxo-4-phenyl-3,4-dihydro-1H-quinoxalin-2-ylidene)-hydrazide]: the AMPA-induced neurotoxicity entry in test [1] (AMPA 30 μM) is given as “can be ameliorated”. For the same compound, the viability at 100 µM in test [1] (Rattus norvegicus, purkinje, 0.5 h, AMPA 30 μM for 30 minutes, mean ± SEM (10), p < 0.005 vs AMPA alone (13.41 ± 2.34), Control 94.41 ± 0.97, read-out: % Live Purkinje Neurons) stood at 51 ± 4.8%. In addition, the IC50 is more than 500 µM in test [2], 25 µM in test [3], more than 200 µM in test [4] and 5.6 µM in test [5].
